{
  "source": "patent US12226401B2",
  "about": "“Molecular genetic approach to treatment and diagnosis of alcohol and drug dependence” (priority 2010, dated 2025)",
  "format_in_all_cases": "in vivo, human",
  "key": {"[1]": {"system": "methamphetamine dependent subjects", "experiment": "Methamphetamine/Ondansetron study: proportion of subjects with methamphetamine-free (clean) week, GEE analysis by 5'-HTTLPR genotype", "excerpt": "Methods: Data were modeled using generalized estimating equations (GEE). […] Independent variables were genotype, group, weeks since randomization and the interaction between treatment group and weeks since randomization. […] The model's group and genotype terms allowed for possible differences at baseline due to ineffective randomization and genotype, respectively. Group consisted of two levels: placebo vs. all active arms combined, where all active arms were combined at the request of the study sponsor and investigators. Subjects were of three different genotypes—SS, LL and LS. At the request of the investigator, two, separate GEE analyses were run, one for each pairing of a homozygote with the heterozygote (i.e., SS-LS and LL-LS). Due to the small quantity of subjects for which genotyping was conducted (n=34), hypothesis testing used Type III generalized score statistics. Analysis was restricted to data obtained post-randomization. Methods: Data were modeled using generalized estimating equations (GEE). […] Independent variables were genotype, group, weeks since randomization and the interaction between treatment group and weeks since randomization. The hypothesis of primary interest asked if treatment with ondansetron influences rate of change in methamphetamine usage over time. […] The model's group and genotype terms allowed for possible differences at baseline due to ineffective randomization and genotype, respectively. Group consisted of two levels: placebo vs. all active arms combined, where all active arms were combined at the request of the study sponsor and investigators. Subjects were of three different genotypes—SS, LL and LS. At the request of the investigator, two, separate GEE analyses were run, one for each pairing of a homozygote with the heterozygote (i.e., SS-LS and LL-LS). Due to the small quantity of subjects for which genotyping was conducted (n=34), hypothesis testing used Type III generalized score statistics. Analysis was restricted to data obtained post-randomization."}, "alcoholics": {"system": "alcoholics", "experiment": "Predicted treatment outcome with ondansetron by 5'-HTTLPR / rs1042173 genotype matrix", "parameters": "key: XA being the very best; all the cells marked with an X will be efficacious; Y may respond somewhat; Z will not respond or worsen"}, "[2]": {"system": "alcohol dependent patients", "experiment": "Phase II study of 283 randomized alcohol dependent subjects: ondansetron response by 5'-HTTLPR and 3'-UTR genotype (PHDD, DDD, PDA, patients with no heavy drinking)", "details": "LL/TT, LL/TG, LL/GG, LS/TG, and SS/TG genotypes", "excerpt": "The TT and TG genotype groups can be summarized as T carriers."}, "[3]": {"system": "alcohol dependent individuals", "experiment": "Same ondansetron alcohol dependence trial, epistatic genotype analysis: drinks/day (DD)", "excerpt": "Using the same data as was used in Example 11, further epistatic analysis among SNPs from serotonin (SERT), 5HT-3A, and 5HT-3B reveal that significant epistatic effect exists among the three genes in affecting response to ondesetron treatment as measured by drinks/drinking day (DDD), drinks/day (DD), percentage heavy drinking days (PHDD), and percentage of days abstinent (PDA).\nUsing the same data as was used in Example 11, further epistatic analysis among SNPs from serotonin (SERT), 5HT-3A, and 5HT-3B reveal that significant epistatic effect exists among the three genes in affecting response to ondesetron treatment as measured by DDD, DD, and PDA."}},
  "data": [
    {"smiles": "Cc1nccn1CC1CCc2c(c3ccccc3n2C)C1=O", "note": "(centres unmarked) [ondansetron, 9-methyl-3-[(2-methyl-1H-imidazol-1-yl)methyl]-1,2,3,9-tetrahydrocarbazol-4-one]", "values": [
      {"measurement": "Proportion with Clean Week, Mean", "setting": "[1]; Active Arm Yes (all active arms combined), all genotypes, study week 1", "value": 0.55},
      {"measurement": "Proportion with Clean Week, Mean", "setting": "[1]; Active Arm Yes, all genotypes, study week 2", "value": 0.50},
      {"measurement": "Proportion with Clean Week, Mean", "setting": "[1]; Active Arm Yes, all genotypes, study week 3", "value": 0.63},
      {"measurement": "Proportion with Clean Week, Mean", "setting": "[1]; Active Arm Yes, all genotypes, study week 4", "value": 0.53},
      {"measurement": "Proportion with Clean Week, Mean", "setting": "[1]; Active Arm Yes, all genotypes, study week 5", "value": 0.43},
      {"measurement": "Proportion with Clean Week, Mean", "setting": "[1]; Active Arm Yes, all genotypes, study week 6", "value": 0.33},
      {"measurement": "Proportion with Clean Week, Mean", "setting": "[1]; Active Arm Yes, all genotypes, study week 7", "value": 0.46},
      {"measurement": "Proportion with Clean Week, Mean", "setting": "[1]; Active Arm Yes, all genotypes, study week 8", "value": 0.50},
      {"measurement": "Proportion with Clean Week, Mean", "setting": "[1]; LLLS No, Active Yes, study week 1", "value": 0.50},
      {"measurement": "Proportion with Clean Week, Mean", "setting": "[1]; LLLS No, Active Yes, study week 2", "value": 0.33},
      {"measurement": "Proportion with Clean Week, Mean", "setting": "[1]; LLLS No, Active Yes, study week 3", "value": 0.71},
      {"measurement": "Proportion with Clean Week, Mean", "setting": "[1]; LLLS No, Active Yes, study week 4", "value": 0.50},
      {"measurement": "Proportion with Clean Week, Mean", "setting": "[1]; LLLS No, Active Yes, study week 5", "value": 0.25},
      {"measurement": "Proportion with Clean Week, Mean", "setting": "[1]; LLLS No, Active Yes, study week 6", "value": 0.50},
      {"measurement": "Proportion with Clean Week, Mean", "setting": "[1]; LLLS No, Active Yes, study week 7", "value": 0.25},
      {"measurement": "Proportion with Clean Week, Mean", "setting": "[1]; LLLS No, Active Yes, study week 8", "value": 0.00},
      {"measurement": "Proportion with Clean Week, Mean", "setting": "[1]; LLLS Yes, Active Yes, study week 1", "value": 0.58},
      {"measurement": "Proportion with Clean Week, Mean", "setting": "[1]; LLLS Yes, Active Yes, study week 2", "value": 0.60},
      {"measurement": "Proportion with Clean Week, Mean", "setting": "[1]; LLLS Yes, Active Yes, study week 3", "value": 0.58},
      {"measurement": "Proportion with Clean Week, Mean", "setting": "[1]; LLLS Yes, Active Yes, study week 4", "value": 0.55},
      {"measurement": "Proportion with Clean Week, Mean", "setting": "[1]; LLLS Yes, Active Yes, study week 5", "value": 0.50},
      {"measurement": "Proportion with Clean Week, Mean", "setting": "[1]; LLLS Yes, Active Yes, study week 6", "value": 0.25},
      {"measurement": "Proportion with Clean Week, Mean", "setting": "[1]; LLLS Yes, Active Yes, study week 7", "value": 0.56},
      {"measurement": "Proportion with Clean Week, Mean", "setting": "[1]; LLLS Yes, Active Yes, study week 8", "value": 0.57},
      {"measurement": "Proportion with Clean Week, Mean", "setting": "[1]; SSLS No, Active Yes, study week 1 since randomization", "value": 1.00},
      {"measurement": "Proportion with Clean Week, Mean", "setting": "[1]; SSLS No, Active Yes, study week 2", "value": 0.50},
      {"measurement": "Proportion with Clean Week, Mean", "setting": "[1]; SSLS No, Active Yes, study week 3", "value": 1.00},
      {"measurement": "Proportion with Clean Week, Mean", "setting": "[1]; SSLS No, Active Yes, study week 4", "value": 0.50},
      {"measurement": "Proportion with Clean Week, Mean", "setting": "[1]; SSLS No, Active Yes, study week 5", "value": 0.50},
      {"measurement": "Proportion with Clean Week, Mean", "setting": "[1]; SSLS No, Active Yes, study week 6", "value": 0.50},
      {"measurement": "Proportion with Clean Week, Mean", "setting": "[1]; SSLS No, Active Yes, study week 7", "value": 0.50},
      {"measurement": "Proportion with Clean Week, Mean", "setting": "[1]; SSLS No, Active Yes, study week 8", "value": 0.50},
      {"measurement": "Proportion with Clean Week, Mean", "setting": "[1]; SSLS Yes, Active Yes, study week 1", "value": 0.50},
      {"measurement": "Proportion with Clean Week, Mean", "setting": "[1]; SSLS Yes, Active Yes, study week 2", "value": 0.50},
      {"measurement": "Proportion with Clean Week, Mean", "setting": "[1]; SSLS Yes, Active Yes, study week 3", "value": 0.59},
      {"measurement": "Proportion with Clean Week, Mean", "setting": "[1]; SSLS Yes, Active Yes, study week 4", "value": 0.53},
      {"measurement": "Proportion with Clean Week, Mean", "setting": "[1]; SSLS Yes, Active Yes, study week 5", "value": 0.42},
      {"measurement": "Proportion with Clean Week, Mean", "setting": "[1]; SSLS Yes, Active Yes, study week 6", "value": 0.30},
      {"measurement": "Proportion with Clean Week, Mean", "setting": "[1]; SSLS Yes, Active Yes, study week 7", "value": 0.45},
      {"measurement": "Proportion with Clean Week, Mean", "setting": "[1]; SSLS Yes, Active Yes, study week 8", "value": 0.50},
      {"measurement": "Proportion of subjects with a methamphetamine-free week over time", "setting": "[1]; active group (all active arms combined), 34 subjects, placebo arm declined", "value": "remained roughly steady"},
      {"measurement": "Predicted treatment outcome with ondansetron", "setting": "alcoholics; genotype LL/GG", "value": "X"},
      {"measurement": "Predicted treatment outcome with ondansetron", "setting": "alcoholics; genotype LL/TG", "value": "X"},
      {"measurement": "Predicted treatment outcome with ondansetron", "setting": "alcoholics; genotype LL/TT", "value": "XA"},
      {"measurement": "Predicted treatment outcome with ondansetron", "setting": "alcoholics; genotype LS/GG", "value": "Y"},
      {"measurement": "Predicted treatment outcome with ondansetron", "setting": "alcoholics; genotype LS/TG", "value": "Y"},
      {"measurement": "Predicted treatment outcome with ondansetron", "setting": "alcoholics; genotype LS/TT", "value": "X"},
      {"measurement": "Predicted treatment outcome with ondansetron", "setting": "alcoholics; genotype SS/GG", "value": "Z"},
      {"measurement": "Predicted treatment outcome with ondansetron", "setting": "alcoholics; genotype SS/TG", "value": "Z"},
      {"measurement": "Predicted treatment outcome with ondansetron", "setting": "alcoholics; genotype SS/TT", "value": "X"},
      {"measurement": "Response to ondansetron treatment by genotype", "setting": "[2]", "value": "respond to ondansetron treatment"},
      {"measurement": "Least Squares Mean Difference, Drinks per Days, OND vs. Placebo", "setting": "[3]; Among Comb (LL + TT or AC or AG)", "value": "−1.65"},
      {"measurement": "Least Squares Mean Difference, Drinks per Days, Comb vs. Others", "setting": "[3]; Among OND, Comb = LL + TT or AC or AG", "value": "−1.65"},
      {"measurement": "Least Squares Mean, Drinks per Days", "setting": "[3]; Comb (LL + TT or AC or AG)", "value": 2.90},
      {"measurement": "Least Squares Mean, Drinks per Days", "setting": "[3]; Others (not LL + TT or AC or AG)", "value": 4.55},
      {"measurement": "Least Squares Mean, Drinks per Days", "setting": "[3]; all OND patients, model Comb (LL + TT or AC or AG) vs Others", "value": 3.72}
    ]}
  ]
}
